Experimental data reported in ChEMBL document CHEMBL1201862, “PubChem BioAssay data set” (2004).
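Method: 48-hour compound exposure of cells in 96-well plates, five concentrations, linear interpolation of endpoints. GI50 marks 50% less growth.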 Calls of active or inactive are those of the source. Cut-off read from the data, not from the text of the source: active = GI50 up to about 1.1 µM and inactive = higher.

Experiments:
Experiment in all cases: NCI anticancer screen, dose series, 48 h
T47D = test system: T47D
K562 = test system: K562
786-0 = test system: 786-0
MDA-MB-435 = test system: MDA-MB-435
COLO 205 = test system: COLO 205
SF-268 = test system: SF-268
CCRF-CEM = test system: CCRF-CEM
Hs-578T = test system: Hs-578T
SK-MEL-5 = test system: SK-MEL-5
HT-29 = test system: HT-29
HL-60 = test system: HL-60
UO-31 = test system: UO-31
SR = test system: SR
MOLT-4 = test system: MOLT-4
NCI-H226 = test system: NCI-H226
SNB-19 = test system: SNB-19
SN12C = test system: SN12C
IGROV-1 = test system: IGROV-1
NCI-H460 = test system: NCI-H460
BT-549 = test system: BT-549

Measured: GI50

c1ccc(C[N+]23C(CC[C@H]2c2ccccc2)CC[C@H]3c2ccccc2)cc1 (some centres undefined)
inactive: T47D 8.47 µM | K562 9.38 µM | 786-0 32.4 µM | MDA-MB-435 18.7 µM | COLO 205 11.2 µM | SF-268 43.5 µM | CCRF-CEM 27.4 µM | Hs-578T 49.5 µM | SK-MEL-5 5.43 µM | HT-29 17.9 µM | HL-60 11.2 µM | UO-31 > 100 µM | SR 21.4 µM | MOLT-4 27.9 µM | NCI-H226 22.1 µM | SNB-19 29.5 µM | SN12C 37.5 µM | IGROV-1 21.6 µM

CC(C)OC(=O)NNc1cccc(Cl)c1
inactive: T47D > 100 µM | K562 47.3 µM | 786-0 > 100 µM | NCI-H460 > 100 µM | MDA-MB-435 > 100 µM | COLO 205 > 100 µM | SF-268 > 100 µM | CCRF-CEM > 100 µM | Hs-578T > 100 µM | SK-MEL-5 > 100 µM | HT-29 > 100 µM | HL-60 33.3 µM | UO-31 > 100 µM | SR > 100 µM | MOLT-4 > 100 µM | NCI-H226 > 100 µM | SNB-19 > 100 µM | SN12C > 100 µM

CCCCCCCCCC(=O)NC(CCC(=O)N(CCNC(=O)c1nc(-c2ccccc2)oc1-c1ccccc1)Cc1ccccc1)C(=O)O (centres undefined)
inactive: T47D 20.4 µM | 786-0 17.7 µM | NCI-H460 38.1 µM | MDA-MB-435 18.7 µM | COLO 205 19.6 µM | SF-268 16.5 µM | SK-MEL-5 16.2 µM | HT-29 18 µM | BT-549 19.3 µM | UO-31 15.2 µM | MOLT-4 22.4 µM | NCI-H226 23.8 µM | SNB-19 17.4 µM | SN12C 18.7 µM | IGROV-1 19.5 µM

COc1ccc([C@H]2C=C(c3cc(F)c(Cl)cc3Cl)N=c3s/c(=C\c4ccc(-c5ccc(Cl)cc5Cl)o4)c(=O)n32)cc1
inactive: T47D 19.6 µM | K562 38.8 µM | 786-0 42.4 µM | NCI-H460 48.4 µM | MDA-MB-435 30.5 µM | COLO 205 80 µM | SF-268 35.6 µM | Hs-578T 34.8 µM | SK-MEL-5 36.6 µM | HT-29 37.2 µM | BT-549 47.2 µM | UO-31 32.9 µM | MOLT-4 31.9 µM | NCI-H226 24.6 µM | SNB-19 31.9 µM | SN12C 47.8 µM | IGROV-1 30.3 µM

O=C(Nc1ccccc1)N1N=C(c2ccccc2)C1c1ccccc1 (centres undefined)
inactive: T47D 59.6 µM | 786-0 16.4 µM | NCI-H460 42.3 µM | COLO 205 41.7 µM | SF-268 21.1 µM | Hs-578T 24.2 µM | SK-MEL-5 22.1 µM | HT-29 20.5 µM | BT-549 23.2 µM | HL-60 21.9 µM | UO-31 15.2 µM | NCI-H226 18.8 µM | SNB-19 27.7 µM | SN12C 48 µM | IGROV-1 40.4 µM

CN1C(C(=O)Nc2ccccn2)=C(O)c2ccccc2S1(=O)=O [PIROXICAM]
inactive: T47D > 100 µM | 786-0 > 100 µM | MDA-MB-435 > 100 µM | COLO 205 > 100 µM | SF-268 > 100 µM | CCRF-CEM > 100 µM | SK-MEL-5 > 100 µM | HT-29 > 100 µM | BT-549 15.3 µM | HL-60 > 100 µM | UO-31 > 100 µM | SR > 100 µM | MOLT-4 > 100 µM | NCI-H226 > 100 µM | SNB-19 > 100 µM | SN12C > 100 µM
